Patent US9481676B2, “Azepino[4,5-B]indoles and methods of use” (Medivation Technologies, Inc., priority 2008, dated 2016)

Experiments:
[1] = target: T1, human recombinant histamine H1 receptor (Homo sapiens, UniProt P35367); experiment: Histamine H1 radioligand binding ([3H]Pyrilamine); conditions: compound at 1 μM; read-out: Histamine Binding (1 μM) H1, percent inhibition of specific binding
T1 construct: expressed in transfected cells; host or cells: CHO cells
Experimental: To evaluate in radioligand binding assays the activity of compounds of the invention, human recombinant histamine H1 receptor expressed in Chinese hamster ovary (CHO) cells (De Backer, M. D. et al., Biochem. Biophys. Res. Comm. 197(3):1601, 1993) in a modified Tris-HCl buffer (50 mM Tris-HCl, pH 7.4, 2 mM MgCl2, 100 mM NaCl, 250 mM Sucrose) was used. Compounds of the invention were incubated with 1.2 nM [^3H]Pyrilamine for 180 min. at 25° C. Non-specific binding was estimated in the presence of 1 μM pyrilamine. Receptor proteins were filtered and washed, the filters were then counted to determine [^3H]Pyrilamine specifically bound. Compounds were screened at 1 μM or lower, using 1% DMSO as vehicle. Biochemical assay results are presented as the percent inhibition of specific binding in Table 6.

[2] = target: T2, human recombinant histamine H2 receptor (Homo sapiens, UniProt P25021); experiment: Histamine H2 radioligand binding ([125I]Aminopotentidine); conditions: compound at 1 μM; read-out: Histamine Binding (1 μM) H2, percent inhibition of specific binding
T2 construct: expressed in transfected cells; host or cells: CHO-K1 cells
Experimental: To evaluate in radioligand binding assays the activity of compounds of the invention, human recombinant histamine H2 receptor expressed in Chinese hamster ovary (CHO) K1 cells (Ruat, M., Proc. Natl. Acad. Sci. USA. 87(5):1658, 1990) in a 50 mM Phosphate buffer, pH 7.4 was used. Compounds of the invention were incubated with 0.1 nM [^125I]Aminopotentidine for 120 min. at 25° C. Non-specific binding was estimated in the presence of 3 μM Tiotidine. Receptor proteins were filtered and washed, the filters were then counted to determine [^125I]Aminopotentidine specifically bound. Compounds were screened at 1 μM or lower, using 1% DMSO as vehicle. Biochemical assay results are presented as the percent inhibition of specific binding in Table 6.

[3] = target: T3, human recombinant dopamine D2L receptor (Homo sapiens, UniProt P14416); experiment: Dopamine D2L radioligand binding ([3H]Spiperone); conditions: compound at 1 μM; read-out: Dopamine (1 μM) D2L, percent inhibition of specific binding
T3 construct: expressed in transfected cells; host or cells: CHO cells
Experimental: To evaluate in radioligand binding assays the activity of compounds of the invention, human recombinant dopamine D2L receptor expressed in Chinese hamster ovary (CHO) cells (Grandy, D. K. et al. Proc. Natl. Acad. Sci. USA. 86:9762, 1989; Hayes, G. et al., Mol. Endocrinol. 6:920, 1992) in a modified Tris-HCl buffer (50 mM Tris-HCl, pH 7.4, 1.4 mM Ascorbic Acid, 0.001% BSA, 150 mM NaCl) was used. Compounds of the invention were incubated with 0.16 nM [^3H]Spiperone for 120 min. at 25° C. Non-specific binding was estimated in the presence of 10 μM Haloperidol. Receptor proteins were filtered and washed, the filters were then counted to determine [^3H]Spiperone specifically bound. Compounds were screened at 1 μM or lower, using 1% DMSO as vehicle. Biochemical assay results are presented as the percent inhibition of specific binding in Table 5.

[4] = target: T4, human recombinant serotonin (5-Hydroxytryptamine) 5-HT2A receptor (Homo sapiens, UniProt P28223); experiment: Serotonin 5-HT2A radioligand binding ([3H]Ketanserin); conditions: compound at 1 μM; read-out: Serotonin (1 μM) 5-HT2A, percent inhibition of specific binding
T4 construct: expressed in transfected cells; host or cells: CHO-K1 cells
Experimental: To evaluate in radioligand binding assays the activity of compounds of the invention, human recombinant serotonin (5-Hydroxytryptamine) 5-HT2A receptor expressed in Chinese hamster ovary (CHO-K1) cells (Bonhaus, D. W. et al. Br. J. Pharmacol. 115:622, 1995; Saucier, C. and Albert, P. R., J. Neurochem. 68:1998, 1997) in a 50 mM Tris-HCl buffer, pH 7.4, was used. Compounds of the invention were incubated with 0.5 nM [^3H]Ketanserin for 60 min. at 25° C. Non-specific binding was estimated in the presence of 1 μM Mianserin. Receptor proteins were filtered and washed, the filters were then counted to determine [^3H]Ketanserin specifically bound. Compounds were screened at 1 μM or lower, using 1% DMSO as vehicle. Biochemical assay results are presented as the percent inhibition of specific binding in Table 6.

[5] = target: T5, human recombinant serotonin (5-Hydroxytryptamine) 5-HT2C receptor (Homo sapiens, UniProt P28335); experiment: Serotonin 5-HT2C radioligand binding ([3H]Mesulergine); conditions: compound at 1 μM; read-out: Serotonin (1 μM) 5-HT2C, percent inhibition of specific binding
T5 construct: expressed in transfected cells; host or cells: CHO-K1 cells
T5 sequence (P28335 33-458): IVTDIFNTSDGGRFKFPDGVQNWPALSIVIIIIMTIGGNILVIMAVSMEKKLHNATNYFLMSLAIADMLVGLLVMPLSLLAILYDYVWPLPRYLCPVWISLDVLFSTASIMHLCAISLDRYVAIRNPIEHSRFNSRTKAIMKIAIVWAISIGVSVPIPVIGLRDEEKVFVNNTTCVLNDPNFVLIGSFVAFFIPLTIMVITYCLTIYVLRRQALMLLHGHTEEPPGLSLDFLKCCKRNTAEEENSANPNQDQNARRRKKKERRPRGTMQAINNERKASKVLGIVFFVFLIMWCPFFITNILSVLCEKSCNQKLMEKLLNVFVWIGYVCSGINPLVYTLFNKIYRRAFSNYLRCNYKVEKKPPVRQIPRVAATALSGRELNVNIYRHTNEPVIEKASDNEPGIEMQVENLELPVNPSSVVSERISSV
Experimental: To evaluate in radioligand binding assays the activity of compounds of the invention, human recombinant serotonin (5-Hydroxytryptamine) 5-HT2C receptor expressed in Chinese hamster ovary (CHO-K1) cells (Wolf, W. A. and Schutz, J. S., J. Neurochem. 69:1449, 1997) in a modified Tris-HCl buffer (50 mM Tris-HCl, pH 7.4, 0.1% Ascorbic Acid, 10 μM Pargyline) was used. Compounds of the invention were incubated with 1 nM [^3H]Mesulergine for 60 min. at 25° C. Non-specific binding was estimated in the presence of 1 μM Mianserin. Receptor proteins were filtered and washed, the filters were then counted to determine [^3H]Mesulergine specifically bound. Compounds were screened at 1 μM or lower, using 1% DMSO as vehicle. Biochemical assay results are presented as the percent inhibition of specific binding in Table 6.

[6] = target: T6, human recombinant serotonin (5-Hydroxytryptamine) 5-HT6 receptor (Homo sapiens, UniProt P50406); experiment: Serotonin 5-HT6 radioligand binding ([3H]LSD); conditions: compound at 1 μM; read-out: Serotonin (1 μM) 5-HT6, percent inhibition of specific binding
T6 construct: expressed in transfected cells; host or cells: human HeLa cells
Experimental: To evaluate in radioligand binding assays the activity of compounds of the invention, human recombinant serotonin (5-Hydroxytryptamine) 5-HT6 receptor expressed in human HeLa cells (Monsma, F. J. Jr. et al., Mol. Pharmacol. 43:320, 1993) in a modified Tris-HCl buffer (50 mM Tris-HCl, pH 7.4, 150 mM NaCl, 2 mM Ascorbic Acid, 0.001% BSA) was used. Compounds of the invention were incubated with 1.5 nM [3H]Lysergic acid diethylamide (LSD) for 120 min. at 37° C. Non-specific binding was estimated in the presence of 5 μM Serotonin (5-HT). Receptor proteins were filtered and washed, the filters were then counted to determine [3H]LSD specifically bound. Compounds were screened at 1 μM or lower, using 1% DMSO as vehicle. Biochemical assay results are presented as the percent inhibition of specific binding in Table 6.

T3 sequence (P14416 whole entry): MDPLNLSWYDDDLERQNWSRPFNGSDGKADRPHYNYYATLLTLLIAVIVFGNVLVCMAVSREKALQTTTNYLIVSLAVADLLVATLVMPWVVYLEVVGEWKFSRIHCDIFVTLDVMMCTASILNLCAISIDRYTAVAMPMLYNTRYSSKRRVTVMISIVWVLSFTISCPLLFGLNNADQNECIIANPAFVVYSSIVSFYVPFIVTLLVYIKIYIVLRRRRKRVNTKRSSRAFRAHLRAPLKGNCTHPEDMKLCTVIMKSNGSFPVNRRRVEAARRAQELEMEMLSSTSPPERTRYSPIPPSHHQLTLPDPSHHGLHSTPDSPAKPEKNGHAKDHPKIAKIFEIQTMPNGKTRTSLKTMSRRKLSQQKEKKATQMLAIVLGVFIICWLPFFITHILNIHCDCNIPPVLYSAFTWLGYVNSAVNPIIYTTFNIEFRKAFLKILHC
T1 sequence (P35367 whole entry): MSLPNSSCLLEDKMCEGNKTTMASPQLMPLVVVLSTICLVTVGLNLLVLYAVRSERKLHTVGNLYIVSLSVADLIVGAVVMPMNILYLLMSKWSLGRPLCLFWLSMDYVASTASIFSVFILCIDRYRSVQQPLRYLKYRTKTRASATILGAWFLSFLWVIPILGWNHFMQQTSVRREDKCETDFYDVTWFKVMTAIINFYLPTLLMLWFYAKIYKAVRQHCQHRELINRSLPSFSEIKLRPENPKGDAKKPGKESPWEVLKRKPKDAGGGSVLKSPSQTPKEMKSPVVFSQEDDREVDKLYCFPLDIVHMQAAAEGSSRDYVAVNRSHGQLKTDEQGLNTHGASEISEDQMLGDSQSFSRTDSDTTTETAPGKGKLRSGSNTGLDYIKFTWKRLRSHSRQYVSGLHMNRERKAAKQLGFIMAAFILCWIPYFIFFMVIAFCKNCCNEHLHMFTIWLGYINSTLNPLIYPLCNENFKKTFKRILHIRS
T4 sequence (P28223 whole entry): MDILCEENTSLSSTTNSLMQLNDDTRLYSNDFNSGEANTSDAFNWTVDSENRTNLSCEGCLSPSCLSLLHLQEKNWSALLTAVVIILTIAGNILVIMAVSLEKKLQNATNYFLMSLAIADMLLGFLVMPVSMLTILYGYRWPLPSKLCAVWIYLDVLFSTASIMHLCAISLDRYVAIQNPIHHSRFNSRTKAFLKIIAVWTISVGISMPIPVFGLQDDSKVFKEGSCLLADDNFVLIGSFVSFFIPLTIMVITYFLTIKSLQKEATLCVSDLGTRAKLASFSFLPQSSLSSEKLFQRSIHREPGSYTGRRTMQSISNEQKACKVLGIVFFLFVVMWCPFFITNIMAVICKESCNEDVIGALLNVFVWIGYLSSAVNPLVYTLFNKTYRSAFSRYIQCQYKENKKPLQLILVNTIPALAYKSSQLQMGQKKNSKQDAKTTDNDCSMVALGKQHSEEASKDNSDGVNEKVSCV
T2 sequence (P25021 whole entry): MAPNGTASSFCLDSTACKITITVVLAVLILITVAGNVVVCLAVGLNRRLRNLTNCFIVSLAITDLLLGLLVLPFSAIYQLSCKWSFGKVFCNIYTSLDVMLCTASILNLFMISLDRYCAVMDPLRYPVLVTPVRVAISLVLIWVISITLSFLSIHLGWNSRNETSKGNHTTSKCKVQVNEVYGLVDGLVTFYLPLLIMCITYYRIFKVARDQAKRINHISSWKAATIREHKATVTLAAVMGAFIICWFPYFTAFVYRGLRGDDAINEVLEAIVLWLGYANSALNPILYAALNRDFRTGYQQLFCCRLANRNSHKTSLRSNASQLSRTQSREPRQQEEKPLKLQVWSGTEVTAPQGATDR
T6 sequence (P50406 whole entry): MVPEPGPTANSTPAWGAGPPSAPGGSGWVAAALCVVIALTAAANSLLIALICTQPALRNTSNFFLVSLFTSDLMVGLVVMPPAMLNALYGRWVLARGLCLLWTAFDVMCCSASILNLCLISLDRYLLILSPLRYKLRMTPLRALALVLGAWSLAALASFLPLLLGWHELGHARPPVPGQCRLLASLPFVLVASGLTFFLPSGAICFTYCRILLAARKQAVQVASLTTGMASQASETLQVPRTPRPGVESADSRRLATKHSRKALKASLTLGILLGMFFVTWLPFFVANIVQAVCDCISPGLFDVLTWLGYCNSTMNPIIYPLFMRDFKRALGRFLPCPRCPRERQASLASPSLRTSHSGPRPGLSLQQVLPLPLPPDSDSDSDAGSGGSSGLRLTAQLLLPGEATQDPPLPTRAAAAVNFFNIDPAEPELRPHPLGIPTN

Compound | inhibition at 1 µM [1] [%] | inhibition at 1 µM [2] [%] | inhibition at 1 µM [3] [%] | inhibition at 1 µM [4] [%] | inhibition at 1 µM [5] [%] | inhibition at 1 µM [6] [%]
C/C(=C\n1c2c(c3cc(Cl)ccc31)CCN(C)CC2)c1ccc(Cl)c(Cl)c1 [Compound No. 154, (E)-9-chloro-6-(2-(3,4-dichlorophenyl)prop-1-enyl)-1,2,3,4,5,6-hexahydro-3-methylazepino[4,5-b]indole] | 94 | 97 | 33 | 100 | 99 | 92
C/C(=C\n1c2c(c3cc(Cl)ccc31)CCN(C)CC2)c1ccc(F)c(F)c1 [Compound No. 155, (E)-9-chloro-6-(2-(3,4-difluorophenyl)prop-1-enyl)-1,2,3,4,5,6-hexahydro-3-methylazepino[4,5-b]indole] | 93 | 92 | 38 | 99 | 98 | 101
COc1ccc(/C(C)=C/n2c3c(c4cc(Cl)ccc42)CCN(C)CC3)cc1F [Compound No. 157, (E)-9-chloro-6-(2-(3-fluoro-4-methoxyphenyl)prop-1-enyl)-1,2,3,4,5,6-hexahydro-3-methylazepino[4,5-b]indole] | 68 | 93 | 24 | 98 | 101 | 78
COc1ccc(/C(C)=C/n2c3c(c4cc(Cl)ccc42)CCN(C)CC3)cc1 [Compound No. 160, (E)-9-chloro-1,2,3,4,5,6-hexahydro-6-(2-(4-methoxyphenyl)prop-1-enyl)-3-methylazepino[4,5-b]indole] | 87 | 91 | 17 | 94 | 103 | 99
C/C(=C\n1c2c(c3cc(C)ccc31)CCN(C)CC2)c1ccc(Cl)c(Cl)c1 [Compound No. 176, (E)-6-(2-(3,4-dichlorophenyl)prop-1-enyl)-1,2,3,4,5,6-hexahydro-3,9-dimethylazepino[4,5-b]indole] | 82 | 95 | 23 | 99 | 99 | 74
C/C(=C\n1c2c(c3cc(C)ccc31)CCN(C)CC2)c1ccc(F)c(F)c1 [Compound No. 177, (E)-6-(2-(3,4-difluorophenyl)prop-1-enyl)-1,2,3,4,5,6-hexahydro-3,9-dimethylazepino[4,5-b]indole] | 93 | 92 | 25 | 98 | 99 | 96
COc1ccc(/C(C)=C/n2c3c(c4cc(C)ccc42)CCN(C)CC3)cc1F [Compound No. 179, (E)-6-(2-(3-fluoro-4-methoxyphenyl)prop-1-enyl)-1,2,3,4,5,6-hexahydro-3,9-dimethylazepino[4,5-b]indole] | 45 | 88 | 23 | 98 | 100 | 77
COc1ccc(/C(C)=C/n2c3c(c4cc(C)ccc42)CCN(C)CC3)cc1 [Compound No. 182, (E)-1,2,3,4,5,6-hexahydro-6-(2-(4-methoxyphenyl)prop-1-enyl)-3,9-dimethylazepino[4,5-b]indole] | 62 | 92 | 19 | 101 | 102 | 96
C/C(=C/n1c2c(c3cc(C)ccc31)CCN(C)CC2)c1ccccc1F [Compound No. 240, (Z)-6-(2-(2-fluorophenyl)prop-1-enyl)-3,9-dimethyl-1,2,3,4,5,6-hexahydroazepino[4,5-b]indole] | 96 | 87 | 57 | 98 | 97 | 102
C/C(=C\n1c2c(c3cc(C)ccc31)CCN(C)CC2)c1ccccc1F [Compound No. 241, (E)-6-(2-(2-fluorophenyl)prop-1-enyl)-3,9-dimethyl-1,2,3,4,5,6-hexahydroazepino[4,5-b]indole] | 98 | 93 | 37 | 100 | 97 | 100
C/C(=C/n1c2c(c3cc(Cl)ccc31)CCN(C)CC2)c1ccccc1F [Compound No. 242, (Z)-9-chloro-6-(2-(2-fluorophenyl)prop-1-enyl)-3-methyl-1,2,3,4,5,6-hexahydroazepino[4,5-b]indole] | 100 | 98 | 69 | 99 | 94 | 102
